The subject of one data set is Ishikawa. The experiment in a line: MTT assay in Ishikawa endometrial adenocarcinoma cells. Format: cell-based. To be noted: Table 6, 48 h, 10 point dose response. Background: Formazan colour is commonly taken as a measure of viable cells.
For the next data set, the system named is MDA-MB231. The experiment in a line: MTT assay in MDA-MB-231 breast tumor cells. The class given is cell-based. The note with it: 10 point dose response.
A further data set relates to MCF-7. The experiment in a line: MTT assay in MCF-7 breast tumor cells. The class given is cell-based. The note with it: 10 point dose response.
The next data set concerns DU-145. The experiment in a line: MTT assay in DU-145 prostate tumor cells. The class given is cell-based. The note with it: 10 point dose response.
A further data set has as its system NIH3T3. The experiment in a line: MTT cytotoxicity assay in NIH3T3 fibroblasts. The class given is cell-based, mouse. The note with it: Table 1, MTT assay after 48 h treatment. The protocol:
To consider a molecule as a candidate compound in cancer drug therapy, the test compound must have specific cytotoxicity towards the cancer cells without affecting normal cell growth. Therefore, all active compounds were assessed for toxicity in non-cancer cell-lines: mouse fibroblast cell line (NIH3T3) and monkey kidney epithelial cells (Vero). […] Therefore, based on safety index ([…]), 5d [Centans; based on IUPAC name prefixed with Central Drug Research Institute's signature (Cent)] was selected as a lead compound.

The next data set concerns HL60. As to the kind of experiment: MTT cytotoxicity assay in HL-60 cells. The class given is cell-based. To be noted: Table 1, MTT assay after 48 h treatment.
A further data set concerns K562. The experiment in a line: MTT cytotoxicity assay in K562 cells. To be noted: Table 1, MTT assay after 48 h treatment. The class given is cell-based.
The mark [1] stands for this setting: Homo sapiens, MDA-MB-231, Table 6, 48 h.
[2] abbreviates: Homo sapiens, MCF7, Table 6, 48 h.
Where [3] appears, read: Homo sapiens, DU-145, Table 6, 48 h.

pIC50: −log10 of the molar value. Counter-ions that a name gives are not always drawn. Where only a bound is given, the exact number is not on record here.

One may read the melting point as the temperature of the solid-liquid transition. For `CSc1ccc(/C(=N/OCCCN(C)C)c2cccc3ccccc23)cc1` (as salt: oxalate) [Compound 5m, (4-(methylthio)phenyl)(naphthalen-1-yl)methanone O-3-(dimethylamino)propyl oxime oxalate], the melting point came to 110 °C.
The term pIC50 denotes the IC50 on a negative log10 scale, so that one unit is a factor of ten. Take `COc1ccc(/C(=N/OCCCN(C)C)c2cccc3ccccc23)cc1` [Compound 6i, (4-methoxyphenyl)(naphthalen-1-yl)methanone O-3-(dimethylamino)propyl oxime oxalate]: the pIC50 with Ishikawa (Homo sapiens, Ishikawa) is below 4.30; with MDA-MB231 (setting [1]) it was below 4.30; in the data set on MCF-7 (setting [2]), 4.69; with DU-145 (setting [3]), below 4.30; in the data set with NIH3T3 (Mus musculus, NIH3T3, 48 h), below 4.30; with HL60 (Homo sapiens, HL-60, 48 h), below 4.30. In the data set on K562 (Homo sapiens, K562, 48 h), this molecule had a pIC50 below 4.30.
With `CSc1ccc(/C(=N/OCCN2CCCCCC2)c2cccc3ccccc23)cc1` (as salt: oxalate) [Compound 5h, (4-(methylthio)phenyl)(naphthalen-1-yl)methanone O-2-(azepan-1-yl)ethyl oxime oxalate], the melting point was determined as 145 °C.
With `CSc1ccc(/C(=N/OCCN2CCCC2)c2cccc3ccccc23)cc1` [Compound 5b, (4-(methylthio)phenyl)(naphthalen-1-yl)methanone O-2-(pyrrolidin-1-yl)ethyl oxime oxalate], the pIC50 in the data set on Ishikawa (Homo sapiens, Ishikawa) is 5.22; with MDA-MB231 (setting [1]) it was 5.30; in the data set on MCF-7 (setting [2]), 5.18; with DU-145 (setting [3]) it was 5.02; with NIH3T3 (Mus musculus, NIH3T3, 48 h) it was 4.70; in the data set with HL60 (Homo sapiens, HL-60, 48 h) it was 4.72. Also, in the data set with K562 (Homo sapiens, K562, 48 h), the pIC50 was 4.60.
Take `COc1ccc(/C(=N/OCCN(C)C)c2cccc3ccccc23)cc1` (as salt: oxalate) [Compound 6c, (4-methoxyphenyl)(naphthalen-1-yl)methanone O-2-(dimethylamino)ethyl oxime oxalate]: the melting point worked out at 141 °C.
In turn, `CCN(CC)CCO/N=C(/c1ccc(OC)cc1)c1cccc2ccccc12` (as salt: oxalate) [Compound 6d, (4-methoxyphenyl)(naphthalen-1-yl)methanone O-2-(diethylamino)ethyl oxime oxalate] had a melting point of 137 °C.
Regarding `CSc1ccc(/C(=N/OCCN(C)C)c2cccc3ccccc23)cc1` [Compound 5c, (4-(methylthio)phenyl)(naphthalen-1-yl)methanone O-2-(dimethylamino)ethyl oxime oxalate], the pIC50 was 5.05 in the data set on Ishikawa (Homo sapiens, Ishikawa); 4.89 in the data set on MDA-MB231 (setting [1]); 4.85 with MCF-7 (setting [2]); 4.82 with DU-145 (setting [3]); below 4.30 in the data set with NIH3T3 (Mus musculus, NIH3T3, 48 h); below 4.30 in the data set on HL60 (Homo sapiens, HL-60, 48 h). Besides, in the data set with K562 (Homo sapiens, K562, 48 h), the negative logarithm of the IC50 (pIC50) is below 4.30.
As to `CSc1ccc(/C(=N/OCCN2CCOCC2)c2cccc3ccccc23)cc1` [Compound 5f, (4-(methylthio)phenyl)(naphthalen-1-yl)methanone O-2-morpholinoethyl oxime], the negative logarithm of the IC50 (pIC50) with Ishikawa (Homo sapiens, Ishikawa) is below 4.30; in the data set with MDA-MB231 (setting [1]), below 4.30; in the data set on MCF-7 (setting [2]), below 4.30; in the data set with DU-145 (setting [3]), below 4.30; in the data set with NIH3T3 (Mus musculus, NIH3T3, 48 h) it was 4.59; in the data set with HL60 (Homo sapiens, HL-60, 48 h) it was below 4.30. In addition, the pIC50 with K562 (Homo sapiens, K562, 48 h) was below 4.60.
`COc1ccc(/C(=N/OC(C)CN(C)C)c2cccc3ccccc23)cc1` (stereo not drawn) (as salt: oxalate) [Compound 6f, (4-methoxyphenyl)(naphthalen-1-yl)methanone O-1-(dimethylamino)propan-2-yl oxime oxalate] showed a melting point of 105 °C.
Same read-out and setting: under `COc1ccc(/C(=N/OCCN(C(C)C)C(C)C)c2cccc3ccccc23)cc1` (as salt: oxalate) [Compound 6e, (4-methoxyphenyl)(naphthalen-1-yl)methanone O-2-(diisopropylamino)ethyl oxime oxalate] stands 130 °C.
Regarding `CSc1ccc(/C(=N/OCCCCN2CCCC2)c2cccc3ccccc23)cc1` [Compound 8b, (4-(methylthio)phenyl)(naphthalen-1-yl)methanone O-4-(pyrrolidin-1-yl)butyl oxime], the pIC50 is below 4.30 with Ishikawa (Homo sapiens, Ishikawa); below 4.30 with MDA-MB231 (setting [1]); below 4.30 in the data set with MCF-7 (setting [2]); below 4.30 with DU-145 (setting [3]); below 4.30 in the data set on NIH3T3 (Mus musculus, NIH3T3, 48 h); below 4.30 in the data set on HL60 (Homo sapiens, HL-60, 48 h). Also, the pIC50 with K562 (Homo sapiens, K562, 48 h) was below 4.30.
In the case of `COc1ccc(/C(=N/OCCCN(C)C)c2cccc3ccccc23)cc1` (as salt: oxalate) [Compound 6i, (4-methoxyphenyl)(naphthalen-1-yl)methanone O-3-(dimethylamino)propyl oxime oxalate], the melting point turned out to be 155 °C.
In the case of `COc1ccc(/C(=N/OCCN(C)C)c2cccc3ccccc23)cc1` [Compound 6c, (4-methoxyphenyl)(naphthalen-1-yl)methanone O-2-(dimethylamino)ethyl oxime oxalate], the pIC50 was below 4.30 in the data set on Ishikawa (Homo sapiens, Ishikawa); below 4.30 with MDA-MB231 (setting [1]); 4.82 in the data set with MCF-7 (setting [2]); below 4.30 with DU-145 (setting [3]); below 4.30 in the data set on NIH3T3 (Mus musculus, NIH3T3, 48 h); below 4.30 with HL60 (Homo sapiens, HL-60, 48 h). In the data set on K562 (Homo sapiens, K562, 48 h), the pIC50 was below 4.30.
`COc1ccc(/C(=N/O)c2cccc3ccccc23)cc1` [Compound 4b, (4-methoxyphenyl)(naphthalen-1-yl)methanone oxime] gave a melting point of 132 °C. Further, the pIC50 in the data set with NIH3T3 (Mus musculus, NIH3T3, 48 h) was below 4.30. In addition, the pIC50 in the data set with HL60 (Homo sapiens, HL-60, 48 h) is below 4.30. The molecule also gave a pIC50 with K562 (Homo sapiens, K562, 48 h) below 4.30.
On to `COc1ccc(/C(=N/OCCN2CCCC2)c2cccc3ccccc23)cc1` (as salt: oxalate) [Compound 6b, (4-methoxyphenyl)(naphthalen-1-yl)methanone O-2-(pyrrolidin-1-yl)ethyl oxime oxalate], for which the melting point stood at 158 °C.
Regarding “4-hydroxy-tamoxifen [OH-TAM, reference compound]”, the pIC50 in the data set on Ishikawa was 4.70; in the data set on MDA-MB231 (Table 6, 48 h), 5.10; in the data set with MCF-7 (Table 6, 48 h) it was 5.06; in the data set with DU-145 (Table 6, 48 h) it was 5.00.
In the case of `CSc1ccc(/C(=N/OCCN2CCCCC2)c2cccc3ccccc23)cc1` (as salt: oxalate) [Compound 5a, (4-(methylthio)phenyl)(naphthalen-1-yl)methanone O-2-(piperidin-1-yl)ethyl oxime oxalate], the melting point was 155 °C.
`CSc1ccc(/C(=N/OCCN2CCCC2)c2cccc3ccccc23)cc1` (as salt: oxalate) [Compound 5b, (4-(methylthio)phenyl)(naphthalen-1-yl)methanone O-2-(pyrrolidin-1-yl)ethyl oxime oxalate] displayed a melting point of 153 °C.
`COc1ccc(/C(=N/OCCN2CCCCC2)c2cccc3ccccc23)cc1` (as salt: oxalate) [Compound 6a, (4-methoxyphenyl)(naphthalen-1-yl)methanone O-2-(piperidin-1-yl)ethyl oxime oxalate] registered a melting point of 171 °C.
As to `CSc1ccc(/C(=N/OCCCN2CCC(C)CC2)c2cccc3ccccc23)cc1` (as salt: oxalate) [Compound 7c, (4-(methylthio)phenyl)(naphthalen-1-yl)methanone O-3-(4-methylpiperidin-1-yl)propyl oxime oxalate], the melting point amounted to 145 °C.
Regarding `CSc1ccc(/C(=N/OCCCN2CCCCC2)c2cccc3ccccc23)cc1` (as salt: oxalate) [Compound 7a, (4-(methylthio)phenyl)(naphthalen-1-yl)methanone O-3-(piperidin-1-yl)propyl oxime oxalate], the melting point came to 137 °C.
The same measure, in the same setting: next, `CSc1ccc(/C(=N/OC(C)CN(C)C)c2cccc3ccccc23)cc1` (stereo not drawn) (as salt: oxalate) [Compound 5g, (4-(methylthio)phenyl)(naphthalen-1-yl)methanone O-1-(dimethylamino)propan-2-yl oxime oxalate]: 101 °C.
For the molecule `COc1ccc(/C(=N/OCCN2CCCCCC2)c2cccc3ccccc23)cc1` [Compound 6g, (4-methoxyphenyl)(naphthalen-1-yl)methanone O-2-(azepan-1-yl)ethyl oxime oxalate], the pIC50 in the data set on NIH3T3 (Mus musculus, NIH3T3, 48 h) was 4.80; with HL60 (Homo sapiens, HL-60, 48 h), below 4.30; with K562 (Homo sapiens, K562, 48 h), 5.18.
On to `CCN(CC)CCO/N=C(/c1ccc(SC)cc1)c1cccc2ccccc12` [Compound 5k, (4-(methylthio)phenyl)(naphthalen-1-yl)methanone O-2-(diethylamino)ethyl oxime tartrate], for which the pIC50 with NIH3T3 (tartrate), in the data set with HL60 (tartrate) and with K562 (tartrate) was below 4.30 each time.
The molecule `COc1ccc(/C(=N/OCCN2CCCCCC2)c2cccc3ccccc23)cc1` (as salt: oxalate) [Compound 6g, (4-methoxyphenyl)(naphthalen-1-yl)methanone O-2-(azepan-1-yl)ethyl oxime oxalate] yielded a melting point of 122 °C.
The same measure, in the same setting: under `CSc1ccc(/C(=N/OCCN(C)C)c2cccc3ccccc23)cc1` (as salt: oxalate) [Compound 5c, (4-(methylthio)phenyl)(naphthalen-1-yl)methanone O-2-(dimethylamino)ethyl oxime oxalate] stands 105 °C.

Values taken from patent publication US9994515B2, “Aryl naphthyl methanone oxime(s) and process for preparation thereof” (Council of Scientific & Industrial Research, priority 2013, dated 2018).
